Measured values from patent publication US20230172203A1, “PLANT METABOLISM PROMOTING COMPOSITIONS AND METHODS OF USE” (Panoptic Ag Solutions LLC, priority 2021, published 2023).

Tests used:
[1] = system: Rutgers variety tomato plant seedlings; experiment: 2021 Greenhouse Tomato Trial; type: in vivo
Source text: (§1) The base formulation used in greenhouse trials was an aqueous solution of L-theanine (20% by weight). The base formulation was further diluted with water as detailed for each trial. Rutgers variety tomato plant seedlings (n=6/treatment) were planted in commercial potting soil and then were transplanted to 3 gallon pots. L-theanine treatment was applied at the equivalent of 1 pint in 100 gallons of water (125 ppm) and sprayed till runoff. Two treatment applications were made to the plants approximately 14 days apart.

tea plants = conditions: exogenous application; background statement; cited from earlier work
Soybean plants [2] = experiment: 2021 Greenhouse Soybean Trial (foliar application); type: in vivo
Method: The base formulation used in greenhouse trials was an aqueous solution of L-theanine (20% by weight). The base formulation was further diluted with water as detailed for each trial. Soybean seeds (n=12/treatment) were planted in commercial potting soil in 1 gallon pots. […] The plants were grown for another 14 days then harvested.

Mustard plants = experiment: 2021 Greenhouse Mustard Trial (soil application); type: in vivo
Method: (§2) The base formulation used in greenhouse trials was an aqueous solution of L-theanine (20% by weight). The base formulation was further diluted with water as detailed for each trial. Mustard seeds (n=28/treatment) were planted in commercial potting soil in 1-gallon pots. Approximately 14 days after seedling emergence, an aqueous L-theanine solution was mixed into water at a rate of 0.2 mL per 1000 mL water. The resulting solution was applied to the soil of the pots at a rate of 50 mL per plant. Plants were grown for an additional 14 days then harvested.

corn = experiment: 2021 York, NE Corn Replicated Field Trial; type: in vivo; conditions: in-furrow application 8 fl. oz. per acre; V5 growth stage; vs untreated plant
Source text: FIG. 1 is a photo from a 2021 York, NE Corn Trial. An aqueous solution of L-theanine was applied to the corn as an in-furrow application at a rate of 8 fl. oz. per acre. The pictures from the trial were taken at the V5 (5th Leaf) growth stage.

Soybean (Glycine max) = experiment: 2021 Replicated Nebraska Soybean Field Trial; type: in vivo
Source text: Soybean seeds (Glycine max) were planted at a rate of 150,000 seeds per acre. The treated plot size was 5 ft×40 ft and this was replicated 4 times. A 20% aqueous L-theanine solution was applied to the foliage at 8 fl. oz./acre at the R2 (full flowering) growth stage. The trial was fertilized and maintained under grower standard practices.

[3] = system: Butterbaby variety squash plant seedlings; experiment: 2021 Greenhouse Squash Trial; type: in vivo
Source text: as §1, with “Butterbaby” for “Rutgers”, “squash” for “tomato”, “(n=4/treatment)” for “(n=6/treatment)”, “3-gallon” for “3 gallon”

Soybean plants [4] = experiment: 2021 Greenhouse Soybean Trial (soil application); type: in vivo
Method: as §2, with “Soybean” for “Mustard”

Almond trees = experiment: 2021 Replicated California Almond Trial; type: in vivo
Method: Almond trees (n=6) were treated with a 20% aqueous solution of L-theanine at 1 pint per acre at pink bud and full bloom. Additional applications at 0.5 pint per acre soil were applied at petal fall, petal fall +3 weeks, and petal fall +6 weeks for a total of applications. The trial was maintained at grower standard fertilizer and pest management throughout the course of the trial.

Onions = experiment: 2021 Pennsylvania Onion Replicated Field Trial; type: in vivo
Method: Onions were maintained under grower standard practices. Four replications were performed per treatment. In this trial, applications of L-theanine were performed every 14 days for a total of 4 applications.

[5] = foliar spray 125 ppm till runoff, two applications ~14 days apart
[6] = vs untreated check, 125 ppm foliar, two applications
[7] = above the untreated check, foliar 125 ppm
[8] = foliar, 8 fl. oz./50 gallons of water (125 ppm) till runoff, harvested 14 days later
[9] = 0.2 mL per 1000 mL water, 50 mL per plant, harvested 14 days later
[10] = vs untreated check, 4 applications

CCNC(=O)CC[C@H](N)C(=O)O [L-theanine]
Basal Diameter [1, 5]: 6.75 a mm
Fruit (count) [1, 5]: 8.25 a count
Leaf (count) [1, 5]: 5 a count
Plant Height [1, 5]: 21.25 a in
increase in basal diameter [1, 6]: 1.1 mm
increase in basal diameter, percent [1, 6]: 19.5%
increase in fruit count [1, 6]: 3.75
increase in fruit count, percent [1, 6]: 83.3%
increase in plant height [1, 6]: 2.5 in
increase in plant height, percent [1, 6]: 13.3%
quality and yield of tea plants (in words) (tea plants): can improve the quality and yield of tea plants by increasing the number of usable leaves
increase in biomass (Soybean plants [2]; [7]): 2.2 g
increase in biomass, percent (Soybean plants [2]; [7]): 20.1%
increase in root length (Soybean plants [2]; [7]): 254.6 cm
increase in root length, percent (Soybean plants [2]; [7]): 13.2%
increase in root tips (Soybean plants [2]; [7]): 1345.1
increase in root tips, percent (Soybean plants [2]; [7]): 36.1%
Plant Biomass (Soybean plants [2]; [8]): 13.02 a g
Root Length (Soybean plants [2]; [8]): 2185.8 a cm
Root Tips (count) (Soybean plants [2]; [8]): 5075.9 a count
Plant Biomass (Mustard plants; [9]): 22.19 a g
Root Length (Mustard plants; [9]): 545.5 a cm
Root Tips (count) (Mustard plants; [9]): 3178.7 a count
increase in plant biomass (Mustard plants; above the untreated check): 2.8 g
increase in plant biomass, percent (Mustard plants; above the untreated check): 14.5%
increase in root length (Mustard plants; above the untreated check): 120.9 cm
increase in root length, percent (Mustard plants; above the untreated check): 28.5%
increase in root tips (Mustard plants; above the untreated check): 887
increase in root tips, percent (Mustard plants; above the untreated check): 38.7%
root biomass development and stalk girth (FIG. 1, in words) (corn): increases in root biomass development and stalk girth
Yield (Soybean (Glycine max); 20% aqueous solution, foliar, 8 fl. oz./acre at R2 (full flowering)): 84.6 a Bushels/Acre
increase in yield (Soybean (Glycine max); over the untreated control): 6.0 bushels per acre
increase in yield, percent (Soybean (Glycine max); over the untreated control): 7.6%
plant productivity, flowering and fruit set (in words) ([3]; 125 ppm foliar, two applications): improved plant productivity, early flowering, and early fruit set
Fruit/Vine (count) [3, 5]: 4.25 a count
Vine Length [3, 5]: 55.00 a in
increase in fruit per vine [3, 6]: 2.75 fruit
increase in fruit per vine, percent [3, 6]: 183.3%
increase in vine length [3, 6]: 11.25 in
increase in vine length, percent [3, 6]: 25.7%
Plant Biomass (Soybean plants [4]; [9]): 7.44 a g
Root Length (Soybean plants [4]; [9]): 1631.4 a cm
increase in root length (Soybean plants [4]; above the untreated check): 66.4 cm
increase in root length, percent (Soybean plants [4]; above the untreated check): 4.2%
increase in soybean biomass (Soybean plants [4]; above the untreated check): 1.3 g
increase in soybean biomass, percent (Soybean plants [4]; above the untreated check): 20.4%
Yield (Almond trees; 20% aqueous solution, 1 pint per acre at pink bud and full bloom, 0.5 pint per acre soil at petal fall, +3 weeks, +6 weeks): 152.2 a lbs/tree
increase in almond yield (average) (Almond trees; vs untreated check): 15.3 lbs per tree
increase in almond yield, percent (Almond trees; vs untreated check): 11.2%
Fresh Onion Mass (Onions; applications every 14 days, total of 4 applications): 227 a g
size and uniformity of onions (FIG. 2, in words) (Onions; treated over untreated onions): increase in size and uniformity
increase in biomass of the onions (Onions; [10]): 75.0 g
increase in biomass of the onions, percent (Onions; [10]): 49.3%
